Experimental findings from US8617819B2, “Polymers for analyte detection” (Massachusetts Institute of Technology, priority 2004, dated 2013) are described below.

For one assay, the system named is sheep erythrocytes. As to the kind of experiment: hemagglutination inhibition of sheep erythrocytes. Type of assay: cell-based.
In assay [1] the test system is mannose binding (wild type) E. coli strain. The assay is described as follows: fluorescent staining / clustering of mannose binding (wild type) E. coli. The assay is classed as cell-based. The following applies: 30 minutes, OD600 1.0, washed twice with PBS. As for the experimental part:
(§1) Two bacterial strains that differed only in their mannose binding properties were used to assess whether the mannosylated PPE 22a could fluorescently stain E. coli. In addition to a strain that binds to mannose, a second strain that is mutated in its mannose binding protein (FimH) to abolish mannose binding was used. The non-functionalized polymer 21, the mannosylated polymer 22a, and 2′-fluorescein aminoethyl mannoside were individually incubated with these bacterial strains. After incubating a 1 ml bacterial suspension at an OD600 of 1.0 with the appropriate polymer or dye labeled mannose for 30 minutes, the suspensions were centrifuged to pellet the cells. The supernatant solution containing unbound polymer or dye labeled mannose was discarded and the cells were washed twice with phosphate buffered saline (PBS, pH 7.2). The bacteria were then resuspended in PBS. […]
(§2) Binding of mannosylated polymer to bacteria was imaged using laser scanning confocal microscopy and fluorescence microscopy. […]
(§3) FIGS. 8A-8B illustrate laser scanning confocal microscopy images. […] FIG. 8D is a conventional fluorescence spectra of polymer 22a in PBS (solid line) and normalized fluorescence spectra of a bacterial cluster obtained using confocal microscopy (dotted line).

In assay [2] the test system is E. coli strain mutated in its mannose binding protein (FimH). The assay is described as follows: fluorescent staining / clustering of FimH mutant (non-mannose binding) E. coli. The assay is classed as cell-based. The following applies: 30 minutes, OD600 1.0, washed twice with PBS. How it is done: as §1, §2, §3
The nature of assay [3]: Stern-Volmer quenching of polymer 1 by streptavidin-free dyes. The assay is classed as binding. As to conditions: free dye added to polymer 1, 50 mM Tris buffer pH 7.4. How it is done:
This mechanism generally requires fairly close proximity between the donor and acceptor chromophores. To study these interactions, the Stern-Volmer (KSV) quenching constants were determined from fluorescence emission and lifetime measurements in 50 mM Tris buffer at pH 7.4. Upon the addition of the streptavidin-free fluorescent dyes (fluorescein, RhB, and sulforhodamine 101, the Texas Red™ parent dye) to polymer 1, the apparent KSV values were determined to be 26,300 M^−1, 91,800 M^−1 and 97,900 M^−1, respectively. […] The dyes therefore may have an inherent affinity for the conjugated polymer backbone. A more planar conformation and greater hydrophobic character for Texas Red™, compared to RhB and fluorescein, may permit better stacking and orbital interaction with the CP backbone, allowing for greater DET. In the case of dye-labeled streptavidin, biological recognition first may bring the dyes into closer proximity with the polymer. Conformational and hydrophobic characteristics of the dyes then may tailor the extent of orbital mixing with the polymer: the flatter Texas Red™ may interact more intimately with the planar conjugated polymer backbone then the other dyes. This may favor DET and can explain the better ET that was observed, even at decreased spectral overlap between the CP donor and dye acceptor.

Assay [4] is described as follows: thin film (solid phase) energy transfer / dye association assay. Type of assay: binding. The following applies: for association of free dye with polymer thin films: polymers 3 and 4, thin films. How it is done: Thin film experiments with polymers 3 and 4 were also conducted in this example. Incubation with the dye-labeled streptavidin was performed in the presence of Triton X-100, a non-ionic detergent, to diminish non-specific binding. […] The spectra was scaled to 454 nm.
To perform energy transfer assays in solid phase, the following general protocol was used. The microscope coverslips were pretreated in 1,1,1,3,3,3-hexamethyldisilazane. The polymer solutions at 1 mg/ml in chloroform were spin-cast onto microscope coverslips at a spin rate of 3000 rpm for 1 minute. The coverslips were put under vacuum for 2 h, then were incubated in a solution of dye labeled streptavidin or dye for 1 h. The coverslips were then washed with deionized water, blotted dry and dried under vacuum for a minimum of 5 h. The excitation wavelength at 400 nm was chosen, and the emission spectrum was taken from 415 nm-700 nm.

On to 2′-Fluorescein aminoethyl mannoside, for which the “INHIBITING DOSE” value with sheep erythrocytes amounted to 0.01 M. Also, the “binding / fluorescent labelling of E. coli after incubation, pelleting and washing” value in assay [1] and in assay [2] was “Neither polymer 21 nor the 2′-fluorescein aminoethyl mannoside appeared to bind either E. coli strain” in each case.
As to `NCCOC1O[C@H](CO)[C@@H](O)[C@H](O)[C@@H]1O` (stereo partly drawn) [2′-Aminoethyl mannoside], the “INHIBITING DOSE” value in the assay with sheep erythrocytes is 0.01 M.
Consider `CCN(CC)c1ccc2c(-c3ccccc3C(=O)O)c3ccc(=[N+](CC)CC)cc-3oc2c1.[Cl-]` [RhB, rhodamine B], for which the “apparent Stern-Volmer quenching constant KSV” value in assay [3] was 91,800 M^−1. Also, in assay [4], the “association of free dye with polymer thin films” value was “associated with both 3 and 4”.
In the case of `O=S(=O)([O-])c1cc(S(=O)(=O)O)ccc1C1=c2cc3c4c(c2Oc2c1cc1c5c2CCCN5CCC1)CCC[N+]=4CCC3` [sulforhodamine 101], in assay [3], the “apparent Stern-Volmer quenching constant KSV” value is recorded as 97,900 M^−1. The “association of free dye with polymer thin films” value in assay [4] is listed as “associated with neither”.
With “RhB-strept: rhodamine B-labeled streptavidin, about 4.6 dyes/protein”, in assay [4] (polymers 3 and 4, in the presence of Triton X-100), the “thin film ET of dye-labeled streptavidin” value was “exhibited better ET than T-red-strept”.
